Test results reported in patent US8586617B2, “Aminomethyl-4-imidazoles” (Hoffmann-La Roche Inc., priority 2006, dated 2013).

Molecular target: TAAR1 (Mus musculus (Mouse), UniProt Q923Y8)
Experiment: TAAR1 radioligand binding assay ([3H]-rac-2-(1,2,3,4-tetrahydro-1-naphthyl)-2-imidazoline, membranes of stably transfected HEK293 cells)
Details: not given

Chain of TAAR1 (Q923Y8 whole entry): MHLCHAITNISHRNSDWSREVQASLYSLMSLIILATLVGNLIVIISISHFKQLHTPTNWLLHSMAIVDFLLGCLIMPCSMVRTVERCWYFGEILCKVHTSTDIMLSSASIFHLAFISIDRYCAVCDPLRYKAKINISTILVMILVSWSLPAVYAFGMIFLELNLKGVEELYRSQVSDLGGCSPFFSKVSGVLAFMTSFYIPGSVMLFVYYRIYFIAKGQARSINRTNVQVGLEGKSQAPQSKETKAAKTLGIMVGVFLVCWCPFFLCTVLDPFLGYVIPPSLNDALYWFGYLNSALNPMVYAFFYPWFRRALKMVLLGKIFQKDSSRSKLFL

Ki [µM] | SMILES
0.009 | CCN(Cc1cnc[nH]1)c1cccc(C(F)(F)F)n1 [Example 251, Ethyl-(1H-imidazol-4-ylmethyl)-(6-trifluoromethyl-pyridin-2-yl)-amine]

Same assay, conditions: read-out: Ki (μM) mouse; mouse TAAR1; radioligand [3H]-rac-2-(1,2,3,4-tetrahydro-1-naphthyl)-2-imidazoline at 60 nM; 4° C., 30 minutes

Ki [µM] | SMILES
0.001 | Brc1cccc(NCc2cnc[nH]2)c1 [Example 225, (3-Bromo-phenyl)-(3H-imidazol-4-ylmethyl)-amine]
0.002 | CN(Cc1cnc[nH]1)c1ccc(Cl)c(Cl)c1 [Example 288, (3,4-Dichloro-phenyl)-(1H-imidazol-4-ylmethyl)-methyl-amine]
0.001 | CC(C)N(Cc1cnc[nH]1)c1cccc(Br)c1 [Example 242, (3-Bromo-phenyl)-(3H-imidazol-4-ylmethyl)-isopropyl-amine]
0.003 | CCN(Cc1cnc[nH]1)c1ccc(Br)cc1 [Example 302, (4-Bromo-phenyl)-ethyl-(1H-imidazol-4-ylmethyl)-amine]
0.0098 | Fc1cc(NCc2cnc[nH]2)ccc1Br [Example 181, (4-Bromo-3-fluoro-phenyl)-(1H-imidazol-4-ylmethyl)-amine]
0.0067 | CC(C)Oc1cccc(N(Cc2cnc[nH]2)C(C)C)c1 [Example 110, (3H-Imidazol-4-ylmethyl)-(3-isopropoxy-phenyl)-isopropyl-amine]
0.009 | CC(C)N(Cc1cnc[nH]1)c1cccc(OC(F)(F)F)c1 [Example 115, (3H-Imidazol-4-ylmethyl)-isopropyl-(3-trifluoromethoxy-phenyl)-amine]
0.002 | Clc1cc(NCc2cnc[nH]2)ccc1Br [Example 325, (4-Bromo-3-chloro-phenyl)-(1H-imidazol-4-ylmethyl)-amine]
0.0052 | CC(C)N(Cc1cnc[nH]1)c1cc(Cl)ccc1F [Example 78, (5-Chloro-2-fluoro-phenyl)-(3H-imidazol-4-ylmethyl)-isopropyl-amine]
0.0084 | Fc1ccc(NCc2cnc[nH]2)cc1Oc1ccccc1 [Example 202, (4-Fluoro-3-phenoxy-phenyl)-(3H-imidazol-4-ylmethyl)-amine]
0.0018 | CCN(Cc1cnc[nH]1)c1cccc(C)c1 [Example 6, Ethyl-(3H-imidazol-4-ylmethyl)-m-tolyl-amine]
0.0036 | CN(Cc1cnc[nH]1)c1cccc(Oc2ccccc2)c1 [Example 175, (3H-Imidazol-4-ylmethyl)-methyl-(3-phenoxy-phenyl)-amine]
0.001 | CCN(Cc1cnc[nH]1)c1ccc(Cl)c(Cl)c1 [Example 247, (3,4-Dichloro-phenyl)-ethyl-(1H-imidazol-4-ylmethyl)-amine]
0.0082 | CC(C)N(Cc1cnc[nH]1)c1cccc(Oc2ccc(Cl)cc2)c1 [Example 149, [3-(4-Chloro-phenoxy)-phenyl]-(3H-imidazol-4-ylmethyl)-isopropyl-amine]
0.001 | CCN(Cc1cnc[nH]1)c1ccc(F)c(Cl)c1 [Example 312, (3-Chloro-4-fluoro-phenyl)-ethyl-(1H-imidazol-4-ylmethyl)-amine]
0.0059 | Clc1ccc(CN(Cc2cnc[nH]2)c2cccc(Cl)c2)cc1 [Example 20, (4-Chloro-benzyl)-(3-chloro-phenyl)-(1H-imidazol-4-ylmethyl)-amine]
0.003 | CCN(Cc1cnc[nH]1)c1ccc(F)c(Br)c1 [Example 309, (3-Bromo-4-fluoro-phenyl)-ethyl-(1H-imidazol-4-ylmethyl)-amine]
0.0028 | Clc1cccc(Oc2cccc(NCc3cnc[nH]3)c2)c1 [Example 200, [3-(3-Chloro-phenoxy)-phenyl]-(3H-imidazol-4-ylmethyl)-amine]
0.0068 | CN(Cc1cnc[nH]1)c1cccc(OC(F)F)c1 [Example 189, (3-Difluoromethoxy-phenyl)-(3H-imidazol-4-ylmethyl)-methyl-amine]
0.0014 | CCN(Cc1cnc[nH]1)c1ccc(Cl)cc1 [Example 57, (4-Chloro-phenyl)-ethyl-(3H-imidazol-4-ylmethyl)-amine]
0.0077 | CC(C)N(Cc1cnc[nH]1)c1ccc(OCc2ccccc2)c(Cl)c1 [Example 133, (4-Benzyloxy-3-chloro-phenyl)-(1H-imidazol-4-ylmethyl)-isopropyl-amine]
0.006 | Fc1cc(F)cc(NCc2cnc[nH]2)c1 [Example 277, (3,5-Difluoro-phenyl)-(1H-imidazol-4-ylmethyl)-amine]
0.002 | CCN(Cc1cnc[nH]1)c1ccc(Cl)c(OC)c1 [Example 324, (4-Chloro-3-methoxy-phenyl)-ethyl-(1H-imidazol-4-ylmethyl)-amine]
0.004 | Brc1ccc(NCc2cnc[nH]2)cc1Br [Example 279, (3,4-Dibromo-phenyl)-(1H-imidazol-4-ylmethyl)-amine]
0.002 | CC(C)N(Cc1cnc[nH]1)c1cccc(COc2ccccc2)c1 [Example 207, (3H-Imidazol-4-ylmethyl)-isopropyl-(3-phenoxymethyl-phenyl)-amine]
0.0039 | CCN(Cc1cnc[nH]1)c1ccc(C)c(C)c1 [Example 130, (3,4-Dimethyl-phenyl)-ethyl-(1H-imidazol-4-ylmethyl)-amine]

SMILES | Ki [µM]
CC(C)N(Cc1cnc[nH]1)c1cc(F)cc(Cl)c1 [Example 76, (3-Chloro-5-fluoro-phenyl)-(3H-imidazol-4-ylmethyl)-isopropyl-amine] | 0.0011
Clc1cccc(CN(Cc2cnc[nH]2)c2cccc(Cl)c2)c1 [Example 19, (3-Chloro-benzyl)-(3-chloro-phenyl)-(1H-imidazol-4-ylmethyl)-amine] | 0.0077
CCN(Cc1cnc[nH]1)c1cccc(OC(F)F)c1 [Example 195, (3-Difluoromethoxy-phenyl)-ethyl-(3H-imidazol-4-ylmethyl)-amine] | 0.0042
CC(C)N(Cc1cnc[nH]1)c1cccc(Oc2ccccc2)c1 [Example 123, (3H-Imidazol-4-ylmethyl)-isopropyl-(3-phenoxy-phenyl)-amine] | 0.0021
CC(C)N(Cc1cnc[nH]1)c1ccc(OC(F)(F)F)c(Cl)c1 [Example 33, (3-Chloro-4-trifluoromethoxy-phenyl)-(3H-imidazol-4-ylmethyl)-isopropyl-amine] | 0.0028
CC(C)N(Cc1cnc[nH]1)c1cccc(Cc2ccccc2)c1 [Example 141, (3-Benzyl-phenyl)-(3H-imidazol-4-ylmethyl)-isopropyl-amine] | 0.0015
CCN(Cc1cnc[nH]1)c1nc(Cl)cc(Cl)n1 [Example 237, (4,6-Dichloro-pyrimidin-2-yl)-ethyl-(1H-imidazol-4-ylmethyl)-amine] | 0.004
CC(C1CC1)N(Cc1cnc[nH]1)c1cccc(Cl)c1 (stereo not drawn) [Example 52, (3-Chloro-phenyl)-(1-cyclopropylethyl)-(3H-imidazol-4-ylmethyl)-amine] | 0.004
Fc1ccc(NCc2cnc[nH]2)cc1Cl [Example 281, (3-Chloro-4-fluoro-phenyl)-(1H-imidazol-4-ylmethyl)-amine] | 0.004
CC(C)N(Cc1cnc[nH]1)c1cc(Cl)cc(Cl)c1 [Example 24, (3,5-Dichloro-phenyl)-(3H-imidazol-4-ylmethyl)-isopropyl-amine] | 0.001
CC(C)N(Cc1cnc[nH]1)c1cccc(OCc2ccccc2)c1 [Example 114, (3-Benzyloxy-phenyl)-(3H-imidazol-4-ylmethyl)-isopropyl-amine] | 0.0041
CCN(Cc1cnc[nH]1)c1ccc(Cl)c(F)c1 [Example 307, (4-Chloro-3-fluoro-phenyl)-ethyl-(1H-imidazol-4-ylmethyl)-amine] | 0.002
